The source made the active and inactive calls. The rule behind the calls is not given here.

The first assay concerns the target Toxin B (TcdB) glycohydrolase, Clostridioides difficile 630. The experiment in a line: TcdB glycohydrolase inhibitors, dose response, biochemical, cherry-pick, plate reader (AID 720512). Conditions: recombinant TcdB glycohydrolase activity.
In the case of `CCC(=O)N1CC[C@@H]2[C@H]1c1cc(-c3ccc(OC)cc3)ccc1N(C)[C@H]2CO`, the AC50 is > 42 µM (inactive).

With `CC1(C)Cc2c(sc3ncn4c(=S)[nH]nc4c23)CO1`, the AC50 is > 39 µM (inactive).

Consider `Cc1cc(N/N=C/c2ccc(O)cc2)c2cccc(C)c2n1`, for which the AC50 was > 39 µM (inactive). `CCN(CC)CCCCN1c2ccccc2Sc2ccccc21`: the AC50 is > 39 µM (inactive).

Turning to `Oc1ccc(Cc2ccccc2Cl)c(O)c1`, the AC50 was > 39 µM (inactive). Still for that read-out and setting: with `Cc1cccc(OCCC(=O)NCC(=O)Nc2cccc(C)c2C)c1` the figure was > 39 µM (inactive). As to `CCCNC(=O)N1CC[C@@H]2[C@@H](CO)N(C)c3ccc(-c4ccc(F)cc4)cc3[C@@H]21`, the AC50 is > 42 µM (inactive). Take `COc1cc(/C=N/n2c(-c3ccccc3)n[nH]c2=S)ccc1O`: the AC50 is > 39 µM (inactive). For the compound `C[N+]1(CCCCSc2ccc(O)cc2)CCCCC1`, the AC50 is > 39 µM (inactive). In the case of `Cc1ccc(C(=O)Nc2scc(-c3ccccc3)c2C(=O)O)cc1`, the AC50 was > 39 µM (inactive).

Still in this assay, the particulars now being: recombinant TcdB glycohydrolase activity, at 19.5 µM (top of the series).
In the case of `Nc1ccc(OC(=O)Nc2ccc(O)cc2)cc1`, the “activity change, negative = inhibition” value is “inactive”. Still for that read-out and setting: as for `Cc1ccc(CSc2nc3nc(C)cc(C)c3c(=O)[nH]2)cc1`, the entry is “inactive”; as for `CNc1n[nH]c(=S)s1`, “inactive”. Same read-out and setting: with `COc1ccc(S(=O)(=O)Nc2ccc3oc(C)c(C(=O)O)c3c2)cc1` the entry was “inactive”. Turning to `O=c1oc(-c2ccc(Br)cc2)nc2ccccc12`, the “activity change, negative = inhibition” value is “inactive”. On the same count and under the same terms, as for `COc1cc2nncc(SC)c2cc1OC`, the entry is “inactive”; as for `CNC(=O)C[C@@H]1CC[C@@H]2[C@H](COc3ccc(NS(=O)(=O)c4ccccc4C)cc3C(=O)N2C)O1`, “inactive”.

Consider `COc1ccc(C(=O)Nc2c(-c3cccs3)c(=O)c3ccccc3n2C)cc1`, for which the “activity change, negative = inhibition” value was “inactive”.

Turning to `NC1=NC[C@H](Cc2ccc(O)cc2)N1CCc1cc(C(F)(F)F)cc(C(F)(F)F)c1`, the “activity change, negative = inhibition” value was “inactive”. Turning to `NC(=O)Nc1ccc(Nc2ccccc2)cc1`, the “activity change, negative = inhibition” value was “inactive”. `O=c1c2oc3nc4c(cc3c2ncn1CCCc1ccccc1)CCCC4`: the “activity change, negative = inhibition” value was “inactive”. Still for that read-out and setting: with `CNC(=O)C[C@H]1CC[C@@H]2[C@@H](COc3ccc(NC(=O)c4cccc(OC)c4)cc3C(=O)N2C)O1` the entry was “inactive”; with `O=S(=O)(c1ccccc1)N1CCN=C1SCc1ccccc1`, “inactive”. On the same count and under the same terms, as for `O=C(N/N=C/c1ccc(O)cc1)NC12CC3CC(CC(C3)C1)C2`, the entry is “inactive”; as for `COc1cc(/C=C/C(=O)c2ccc([N+](=O)[O-])o2)ccc1O`, “inactive”; as for `CCSc1nnc(NC(=O)C2CC2c2ccccc2)s1` (configuration not stated), “inactive”. Same read-out and setting: with `CCOC(=O)c1ccc(NC(=O)Oc2cc(C)c(Cl)cc2C(C)C)cc1` the entry was “inactive”. For `Cc1ccc(S(=O)(=O)Oc2ccccc2/C=C2/SC(=O)NC2=O)cc1`, the “activity change, negative = inhibition” value is “inactive”.

Take `CCCc1cc(=O)oc2c3c(cc(OCC(=O)NCCCn4ccnc4)c12)OC(C)(C)CC3`: the “activity change, negative = inhibition” value was “inactive”. As for `NC(=O)CC(NC(=O)c1ccccc1)c1ccc(NCCc2ccc(F)cc2)c([N+](=O)[O-])c1` (configuration not stated), the “activity change, negative = inhibition” value was “inactive”. Same read-out and setting: with `CCOc1ccc2ccccc2c1/C=N/NC(=O)c1ccncc1` the entry was “inactive”; with `COc1ccc(C(=O)Nc2ccccc2C(=O)O)cc1Cl`, “inactive”. In the case of `Cc1onc(-c2ccccc2)c1C(=O)N(Cc1ccco1)Cc1cccs1`, the “activity change, negative = inhibition” value was “inactive”.

Consider `CC(=O)Nc1ccc(NC(=O)Cc2ccc(S(=O)(=O)N3CCCCC3)cc2)cc1`, for which the “activity change, negative = inhibition” value was “inactive”.

As for `CN(C)c1ccc(NC(=O)/C=C/c2c(Cl)cccc2Cl)cc1`, the “activity change, negative = inhibition” value is “inactive”. Still for that read-out and setting: as for `CCOc1ccc(S(=O)(=O)NCCC(=O)NCc2ccccn2)cc1`, the entry is “inactive”; as for `Cc1ccc2c(c1)-c1c(cnn1CC(=O)NC(C)CCc1ccco1)CO2` (configuration not stated), “inactive”. For the compound `COc1cccc(C(=O)OCC(=O)Nc2cc(C)on2)c1OC`, the “activity change, negative = inhibition” value is “inactive”.

`Cc1cccc(-n2c(=O)c3ccccc3n3c(=S)[nH]nc23)c1C`: the “activity change, negative = inhibition” value was “inactive”. Still for that read-out and setting: with `CN1C(=O)NC(c2ccc(O)cc2)C2=C1CN(c1ccc(O)cc1)C2=O` (configuration not stated) the entry was “inactive”. On the same count and under the same terms, as for `Cc1cccc(/C=C/c2onc(C)c2S(=O)(=O)N2CCC(C(=O)N3CCC(C)CC3)CC2)c1`, the entry is “inactive”; as for `COc1cc(Cn2nnc3ccccc32)ccc1O`, “inactive”. On the same count and under the same terms, as for `Cc1c(Cl)cccc1NC(=O)C1Cc2ccccc2CN1C(=O)c1ccccc1` (configuration not stated), the entry is “inactive”. Regarding `Cc1ccc(S(=O)(=O)N2CC(CO)=CCC2c2ccccc2)cc1` (configuration not stated), the “activity change, negative = inhibition” value is “inactive”. Take `O=[N+]([O-])c1ccc(/C=C/c2ccc3ccccc3n2)cc1`: the “activity change, negative = inhibition” value was “inactive”.

Regarding `COC(=O)c1ccc(C23CC4(C2)[C@H](CN(Cc2ccc(C(F)(F)F)cc2)[C@@H]4c2ccccc2)C3c2ccc(Cl)nc2)cc1` (some centres not stated), the “activity change, negative = inhibition” value is “inactive”. Take `O=C(CCC(=O)N1CCSc2ccccc21)Nc1cccc(F)c1`: the “activity change, negative = inhibition” value was “inactive”. The same measure, in the same setting: with `COc1ccccc1OCC(=O)Nc1ccc(-c2nnc(-c3ccco3)o2)cc1` the entry was “inactive”; with `Cc1cccc(/C=C/c2onc(C)c2S(=O)(=O)N2CCC(C(=O)NC(C)C)CC2)c1`, “inactive”.

Regarding `COc1cc(/C=N/NC(=O)CSc2ccccn2)ccc1O`, the “activity change, negative = inhibition” value is “inactive”. The same measure, in the same setting: with `O=c1[nH]c(CSc2nnc(Cc3ccccc3)o2)nc2ccccc12` the entry was “inactive”; with `COc1cc(/C(C)=N/NC(=O)CSc2nnc(C)s2)ccc1O`, “inactive”. Still for that read-out and setting: with `O=C(C[C@H]1CC[C@H]2[C@@H](COC[C@H](O)CN2C(=O)Nc2ccc(Cl)c(Cl)c2)O1)NCc1ccncc1` the entry was “inactive”. On the same count and under the same terms, as for `Cc1noc(C)c1NC(=O)N(C)C[C@@H]1Oc2ccc(NC(=O)C3CCCCC3)cc2C(=O)N([C@@H](C)CO)C[C@H]1C`, the entry is “inactive”; as for `CCOCC(=O)Nc1cc(Cl)ccc1C`, “inactive”. For `Fc1ccc(/C=C\c2nccc3c2[nH]c2ccccc23)cc1`, the “activity change, negative = inhibition” value is “inactive”.

Turning to `Nc1ccc(-c2nc3ccc(N)cc3o2)cc1`, the “activity change, negative = inhibition” value was “inactive”. Regarding `CCCCn1c(N)c(N(CC)C(=O)c2cccs2)c(=O)[nH]c1=O`, the “activity change, negative = inhibition” value is “inactive”. The same measure, in the same setting: as for `Nc1c(Cl)ncnc1NCCc1ccc(O)cc1`, the entry is “inactive”; as for `Cn1ncc(Br)c1C(=O)N/N=C/c1cccc(OC2CSC2)c1`, “inactive”; as for `Cc1ccc2c(C)c3ccc4ccccc4c3c[n+]2c1`, “inactive”. On the same count and under the same terms, as for `Cc1ccc(NC(=O)C2OCCc3ccccc32)cc1C` (configuration not stated), the entry is “inactive”; as for `COc1cccc(CC(=O)OCC(=O)Nc2c(C)nn(-c3ccccc3)c2C)c1`, “inactive”. Same read-out and setting: with `Clc1ccc(/C=C/c2ncc[nH]2)c(Cl)c1` the entry was “inactive”; with `O=C(O)c1cc(-c2ccccc2Cl)n(-c2cccc(Cl)c2)n1`, “inactive”. For the compound `Cc1nc2ccccn2c1-c1ccnn1S(=O)(=O)c1ccc(F)cc1`, the “activity change, negative = inhibition” value is “inactive”.

Turning to `CC(OC(=O)c1cccnc1Cl)C(=O)NC1CCCCC1` (configuration not stated), the “activity change, negative = inhibition” value was “inactive”. The same measure, in the same setting: as for `O=C(Nc1ccc(O)cc1)/C(=C\c1ccncc1)NC(=O)c1ccccc1`, the entry is “inactive”; as for `COCCn1c(NC(=S)NC(=O)C2CC2)cc(=O)[nH]c1=O`, “inactive”. With `Nc1nc(Nc2ccccc2)n[nH]1`, the “activity change, negative = inhibition” value was “inactive”. Same read-out and setting: with `O=C(NCc1cccnc1)c1cc(C2CCCCN2S(=O)(=O)c2cccc3cccnc23)on1` (configuration not stated) the entry was “inactive”; with `CC[n+]1ccc(/C=C/c2ccc(N(C)C)cc2)c2ccccc21`, “inactive”. On the same count and under the same terms, as for `CCN1CCN(c2oc(-c3ccccc3C)nc2S(=O)(=O)c2ccccc2)CC1`, the entry is “inactive”; as for `COc1ccc(C=NNC(=O)c2cc(C)oc2C)cc1O`, “inactive”. On the same count and under the same terms, as for `COCCNc1oc(/C=C/c2ccccc2)nc1C#N`, the entry is “inactive”; as for `O=C(C[C@@H]1CC[C@@H]2[C@H](COC[C@H](O)CN2C(=O)c2ccccn2)O1)NC1CCC1`, “inactive”; as for `CN1CC(=O)N/C1=N\C(=O)Nc1ccc(O)cc1`, “inactive”. With `C[C@H](CO)N1C[C@H](C)[C@@H](CN(C)C(=O)Nc2ccc(C(F)(F)F)cc2)Oc2c(cccc2N(C)C)C1=O`, the “activity change, negative = inhibition” value is “inactive”. Same read-out and setting: as for `COc1ccc(-c2ccc3c(c2)[C@@H]2[C@@H](CCN2C(=O)CN2CCOCC2)[C@H](CO)N3)cc1`, the entry is “inactive”; as for `Cc1cccn2c(CN(C)C3CCCc4ccccc43)c(C(=O)N3CCOCC3)nc12` (configuration not stated), “inactive”.

On to `CS(=O)(=O)Nc1cccc(C2=NN(C(=O)c3ccccc3)C(c3cccs3)C2)c1` (configuration not stated), for which the “activity change, negative = inhibition” value was “inactive”. Still for that read-out and setting: as for `COc1ccccc1-n1c(SCC(=O)O)nc2c(sc(=S)n2-c2ccc(Cl)c(C)c2)c1=O`, the entry is “inactive”.

By AC50 is commonly meant the concentration giving half of the maximal activity seen.

The record behind these values is PubChem BioAssay AID720512 (Broad Institute, 2013).
